Laboratory results taken from US20100196287A1, “Compositions Comprising Perhydrolases and Alkylene Glycol Diacetates” (priority 2007, published 2010).

Legend:
[1] = Washing test on stained fabric with perhydrolase and substrate, tea stain; conditions: 50 mM substrate, 60 min., 40° C.; in comparison with methyl acetate; FIG. 1
Procedure: (§1) • blueberry juice on cotton: product no. C15 from CFT B. V. Vlaardingen, Holland • tea on cotton: product no. 167, Eidgenössische Material- and Prüfanstalt (EMPA) Testmaterialien AG, St. Gallen, Switzerland
(§2) After incubation, the stains were washed three times (3×), dried and fixed. Intensity was measured with a colorimeter Cm508d (Minolta). For this test, round pieces of the test fabric (diameter 10 mm) were incubated in 1 ml alkaline solution in a 24 well microtitration plate. Each test was carried out as a triple determination against a triply determined control. After washing, the degree of whiteness of the washed fabrics was measured in comparison with a whiteness standard (d/8, Ø 8 mm, SCl/SCE), which had been set at 100% (L-value determination). The measurement was made using a colorimeter (Minolta Cm508d) with a light setting of 10°/D65. The results were expressed as percent power, wherein the difference of the reflectance value of the base washing agent without enzymes but with substrate was normalized to 100% (with the comparison substrate methyl acetate).

[2] = Washing test on stained fabric with perhydrolase and substrate, blueberry stain; conditions: 50 mM substrate, 60 min., 40° C.; in comparison with methyl acetate; FIG. 1
Procedure: as §1, §2

Toxicity (statement) = conditions: in contrast to methyl acetate
[3] = Water solubility (statement); format: physicochemical; conditions: in contrast to methyl acetate

CC(=O)OCCOC(C)=O [Ethylene glycol diacetate]
washing power for tea stains [1]: significantly better
washing power for blueberry stains [2]: comparable
toxicity (Toxicity (statement)): non-toxic

CC(=O)OCC(C)OC(C)=O (stereo not shown) [Propylene glycol diacetate]
washing power for tea stains [1]: comparable
water solubility [3]: highly water-soluble
washing power for blueberry stains [2]: comparable
toxicity (Toxicity (statement)): non-toxic
